Source: US20240423984A1, “COMBINATION THERAPIES OF KRAS G12D INHIBITORS WITH SHP-2 INHIBITORS” (MIRATI THERAPEUTICS, INC., priority 2021, published 2024)

Experiments:
Format in all cases: in vivo, nude/nude mice
GP2D cells = experiment: GP2D colon cancer xenograft tumor volume; conditions: for Average Tumor Volumes: GP2D TGI-38 tumor bearing mice
Method: (§1) Immunocompromised nude/nude mice are inoculated in the right hind flank with cells harboring a KRas G12D mutation. When tumor volumes reach between 200-400 mm^3 in size, the mice are divided into four to five groups of 5 mice each. The first group is administered vehicle only. […] The fourth group is administered the single agent dose of the KRas G12D inhibitor using the twice daily for 2 sequential days followed by 5 days off schedule in combination with the single agent dose of the SHP-2 inhibitor. The treatment period varies from cell line to cell line but typically is between 15-28-days. Tumor volumes are measured using a caliper every two three days and tumor volumes are calculated by the formula: […].
(§2) 20 to 25 nude/nude mice per study were inoculated in the right hind limb with 5×10^6 LS180 cells, GP2D cells, Panc 02.03 cells, or AsPC-1 cells. When tumor volumes reached ˜200 mm^3-400 mm3 (study day 0) 5 mice in each of the groups were administered i.p. vehicle only (10% captisol in 50 mM citrate buffer pH 5.0), 30 mg/kg of Kras G12) inhibitor MRTX1133 (10% captisol in 50 mM citrate buffer, pH 5.0) either on the twice daily schedule or the twice daily for 2 consecutive days followed by 5 days off schedule, 10 mg/kg twice daily of the TNO-155 (0.5% methylcellulose and 0.1% Tween 80 in water) SHP2 inhibitor or 30 mg/kg once daily of the RMC-4550 (10% captisol in 50 mM citrate buffer pH 5.0) SHP2 inhibitor, or 30 mg/kg of Kras G12D inhibitor on either schedule and either TNO-155 or RMC-4550. Tumor volumes, measured at pre-specified days, for the five mice per group were averaged and are reported for LS180, GP2D, Panc 02.03, and AsPC-1 in Tables 2, 3, 4 and 5, respectively.
20 nude/nude mice were inoculated with GP2D cells in the right hind flank. When the tumors reached ˜300 mm^3 four treatment groups were established with five mice per group.

AsPC-1 cells = experiment: AsPC-1 pancreatic cancer xenograft tumor volume; conditions: for Average Tumor Volumes: AsPC-1 tumor bearing mice
Method: as §1, §2
Experimental Procedures. 20 nude/nude mice were inoculated with AsPC-1 cells in the right hind flank. When the tumors reached ˜200 mm^3 four treatment groups were established with five mice per group.

Panc 02.03 cells = experiment: Panc 02.03 pancreatic cancer xenograft tumor volume; conditions: for Average Tumor Volumes: Panc 02.03 tumor bearing mice
Method: as §1, §2
Experimental Procedures. 25 nude/nude mice were inoculated with Panc 02.03 cells in the right hind flank. When the tumors reached ˜300 mm^3 four treatment groups were established with five mice per group.

LS180 cells = experiment: LS180 colon cancer xenograft tumor volume; conditions: for Average Tumor Volumes: LS180 tumor bearing mice, TNO155 10 mg/kg BID Daily
Method: as §1, §2
25 nude/nude mice were inoculated with LS180 cells in the right hind flank. When the tumors reached ˜250 mm^3 five treatment groups were established with five mice per group.

[1] = MRTX1133 30 mg/kg BID Daily, Study Day 1
[2] = TNO155 10 mg/kg BID Daily, Study Day 1

Compound: Cc1nc(N2CCC3(CC2)CO[C@@H](C)[C@H]3N)c(CO)nc1-c1cccc(Cl)c1Cl [RMC-4550, (3-((3S,4S)-4-amino-3-methyl-2-oxa-8-azaspiro[4.5]decan-8-yl)-6-(2,3-dichlorophenyl)-5-methylpyrazin-2-yl)methanol]
- Average Tumor Volumes (GP2D cells; RMC-4550 30 mg/kg Once Daily, Study Day 1): 300.014 mm^3
- Average Tumor Volumes (GP2D cells; RMC-4550 30 mg/kg Once Daily, Study Day 7): 353.148 mm^3
- Average Tumor Volumes (GP2D cells; RMC-4550 30 mg/kg Once Daily, Study Day 10): 398.576 mm^3
- Average Tumor Volumes (GP2D cells; RMC-4550 30 mg/kg Once Daily, Study Day 14): 497.714 mm^3
- Average Tumor Volumes (GP2D cells; RMC-4550 30 mg/kg Once Daily, Study Day 17): 530.072 mm^3
- Average Tumor Volumes (GP2D cells; RMC-4550 30 mg/kg Once Daily, Study Day 21): 567.882 mm^3
- Average Tumor Volumes (GP2D cells; RMC-4550 30 mg/kg Once Daily, Study Day 26): 685.836 mm^3
- Average Tumor Volumes (GP2D cells; RMC-4550 30 mg/kg Once Daily, Study Day 28): 807.148 mm^3
- Average Tumor Volumes (GP2D cells; RMC-4550 30 mg/kg Once Daily, Study Day 31): 970.626 mm^3
- Average Tumor Volumes (GP2D cells; RMC-4550 30 mg/kg Once Daily, Study Day 35): 1027.032 mm^3
- tumor growth inhibition (GP2D cells; GP2D, RMC-4550 30 mg/kg QD, single agent, Day 35): 56%

Compound: C#Cc1c(F)ccc2cc(O)cc(-c3ncc4c(N5C[C@H]6CC[C@@H](C5)N6)nc(OC[C@@]56CCCN5C[C@H](F)C6)nc4c3F)c12 [MRTX1133, 4-(4-((1R,5S)-3,8-diazabicyclo[3.2.1]octan-3-yl)-8-fluoro-2-(((2R,7aS)-2-fluorohexahydro-1H-pyrrolizin-7a-yl)methoxy)pyrido[4,3-d]pyrimidin-7-yl)-5-ethynyl-6-fluoronaphthalen-2-ol]
- tumor regression (AsPC-1 cells; AsPC-1, MRTX1133 30 mg/kg BID daily, single agent, Day 23): −28%
- Average Tumor Volumes (AsPC-1 cells; [1]): 193.378 mm^3
- Average Tumor Volumes (AsPC-1 cells; MRTX1133 30 mg/kg BID Daily, Study Day 6): 168.124 mm^3
- Average Tumor Volumes (AsPC-1 cells; MRTX1133 30 mg/kg BID Daily, Study Day 9): 146.75 mm^3
- Average Tumor Volumes (AsPC-1 cells; MRTX1133 30 mg/kg BID Daily, Study Day 13): 143.612 mm^3
- Average Tumor Volumes (AsPC-1 cells; MRTX1133 30 mg/kg BID Daily, Study Day 16): 120.916 mm^3
- Average Tumor Volumes (AsPC-1 cells; MRTX1133 30 mg/kg BID Daily, Study Day 20): 119.264 mm^3
- Average Tumor Volumes (AsPC-1 cells; MRTX1133 30 mg/kg BID Daily, Study Day 23): 139.296 mm^3
- Average Tumor Volumes (GP2D cells; MRTX1133 30 mg/kg BID Daily, Study Day 31): 333.196 mm^3
- tumor regression (Panc 02.03 cells; Panc 02.03, MRTX1133 30 mg/kg BID, daily administration, single agent, Day 22): −33%
- Average Tumor Volumes (Panc 02.03 cells; [1]): 329.056 mm^3
- Average Tumor Volumes (Panc 02.03 cells; MRTX1133 30 mg/kg BID Daily, Study Day 4): 282.836 mm^3
- Average Tumor Volumes (Panc 02.03 cells; MRTX1133 30 mg/kg BID Daily, Study Day 8): 208.15 mm^3
- Average Tumor Volumes (Panc 02.03 cells; MRTX1133 30 mg/kg BID Daily, Study Day 11): 189.782 mm^3
- Average Tumor Volumes (Panc 02.03 cells; MRTX1133 30 mg/kg BID Daily, Study Day 15): 205.992 mm^3
- Average Tumor Volumes (Panc 02.03 cells; MRTX1133 30 mg/kg BID Daily, Study Day 18): 227.806 mm^3
- Average Tumor Volumes (Panc 02.03 cells; MRTX1133 30 mg/kg BID Daily, Study Day 22): 220.912 mm^3

Compound: C[C@@H]1OCC2(CCN(c3cnc(Sc4ccnc(N)c4Cl)c(N)n3)CC2)[C@@H]1N [TNO155]
- tumor growth inhibition (LS180 cells; LS180, TNO155 10 mg/kg BID daily, single agent, Day 15): 48%
- Average Tumor Volumes (LS180 cells; Study Day 1): 272.732 mm^3
- Average Tumor Volumes (LS180 cells; Study Day 4): 568.234 mm^3
- Average Tumor Volumes (LS180 cells; Study Day 8): 888.474 mm^3
- Average Tumor Volumes (LS180 cells; Study Day 11): 1009.462 mm^3
- Average Tumor Volumes (LS180 cells; Study Day 15): 1155.8525 mm^3
- tumor growth inhibition (AsPC-1 cells; AsPC-1, TNO155 10 mg/kg BID daily, single agent, Day 23): 0%
- Average Tumor Volumes (AsPC-1 cells; [2]): 192.408 mm^3
- Average Tumor Volumes (AsPC-1 cells; TNO155 10 mg/kg BID Daily, Study Day 6): 262.654 mm^3
- Average Tumor Volumes (AsPC-1 cells; TNO155 10 mg/kg BID Daily, Study Day 9): 263.966 mm^3
- Average Tumor Volumes (AsPC-1 cells; TNO155 10 mg/kg BID Daily, Study Day 13): 301.71 mm^3
- Average Tumor Volumes (AsPC-1 cells; TNO155 10 mg/kg BID Daily, Study Day 16): 317.812 mm^3
- Average Tumor Volumes (AsPC-1 cells; TNO155 10 mg/kg BID Daily, Study Day 20): 360.412 mm^3
- Average Tumor Volumes (AsPC-1 cells; TNO155 10 mg/kg BID Daily, Study Day 23): 456.218 mm^3
- tumor growth inhibition (Panc 02.03 cells; Panc 02.03, TNO155 10 mg/kg BID daily, single agent, Day 22): 58%
- Average Tumor Volumes (Panc 02.03 cells; [2]): 330.644 mm^3
- Average Tumor Volumes (Panc 02.03 cells; TNO155 10 mg/kg BID Daily, Study Day 4): 365.57 mm^3
- Average Tumor Volumes (Panc 02.03 cells; TNO155 10 mg/kg BID Daily, Study Day 8): 469.4 mm^3
- Average Tumor Volumes (Panc 02.03 cells; TNO155 10 mg/kg BID Daily, Study Day 11): 522.856 mm^3
- Average Tumor Volumes (Panc 02.03 cells; TNO155 10 mg/kg BID Daily, Study Day 15): 571.16 mm^3
- Average Tumor Volumes (Panc 02.03 cells; TNO155 10 mg/kg BID Daily, Study Day 18): 622.47 mm^3
- Average Tumor Volumes (Panc 02.03 cells; TNO155 10 mg/kg BID Daily, Study Day 22): 657.502 mm^3
